These are literature values, as cited in patent US20070218155A1, “Methods and compositions for treating dyslipidaemia” (priority 2004, published 2007).

The conditions of data set [1]: literature statement; cited from earlier work.
Data set [2] concerns DGAT activity in intact Raji cells. The note with it: Tabata et al.; cited from earlier work.
The target of another data set is T1, HMG CoA reductase (Homo sapiens, UniProt P04035).
T1 construct: host or cells: HepG2
T1 sequence (P04035 1-888): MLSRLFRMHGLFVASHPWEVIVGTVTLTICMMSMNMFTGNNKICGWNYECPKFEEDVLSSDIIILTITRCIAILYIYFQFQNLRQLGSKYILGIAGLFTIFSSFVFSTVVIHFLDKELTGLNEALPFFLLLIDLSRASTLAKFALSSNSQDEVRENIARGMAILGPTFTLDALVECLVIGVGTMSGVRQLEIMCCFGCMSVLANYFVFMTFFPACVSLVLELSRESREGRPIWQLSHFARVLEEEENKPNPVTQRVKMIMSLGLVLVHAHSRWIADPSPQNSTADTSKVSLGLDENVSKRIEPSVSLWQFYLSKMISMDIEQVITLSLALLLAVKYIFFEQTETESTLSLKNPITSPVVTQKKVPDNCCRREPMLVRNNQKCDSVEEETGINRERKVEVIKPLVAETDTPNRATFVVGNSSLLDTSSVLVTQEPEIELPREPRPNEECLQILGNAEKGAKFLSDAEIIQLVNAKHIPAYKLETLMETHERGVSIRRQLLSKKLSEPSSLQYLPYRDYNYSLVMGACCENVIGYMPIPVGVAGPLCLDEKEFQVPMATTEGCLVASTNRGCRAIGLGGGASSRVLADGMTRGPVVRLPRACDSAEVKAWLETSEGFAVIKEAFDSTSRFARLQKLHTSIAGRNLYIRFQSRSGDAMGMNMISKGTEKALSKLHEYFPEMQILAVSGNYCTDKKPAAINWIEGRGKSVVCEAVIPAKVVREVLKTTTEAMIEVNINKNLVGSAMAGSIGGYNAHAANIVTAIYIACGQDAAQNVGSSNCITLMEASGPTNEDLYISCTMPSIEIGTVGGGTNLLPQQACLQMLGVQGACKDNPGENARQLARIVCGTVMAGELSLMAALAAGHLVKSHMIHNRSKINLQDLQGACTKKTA
The note with it: HepG2 cells; comparison value; cited from earlier work.

Take `CC(C)=CCc1c(O)cc(O)c2c1O[C@H](c1ccc(O)cc1)CC2=O` [8-prenylnaringenin, 8-prenylnaringenin]: the estrogenic activity result in data set [1] was “potent estrogenic activity”.

Turning to `COc1cc(O)c(CC=C(C)C)c(O)c1C(=O)/C=C/c1ccc(O)cc1` [xanthohumol], the estrogenic activity result in data set [1] is on record as “does not exhibit estrogenic activity”. In data set [2], the “inhibition of triacylglycerol formation / DGAT activity in intact Raji cells” value was “inhibited DGAT activity specifically in human cells”.

On to `CC(C)c1c(C(=O)Nc2ccccc2)c(-c2ccccc2)c(-c2ccc(F)cc2)n1CC[C@@H](O)C[C@@H](O)CC(=O)O` [Atorvastatin], for which the “inhibition of HMG CoA reductase” value on HMG CoA reductase is on record as “about 96%”.
